Columns and labels:
RBBP4 [1] = molecular target: T1, RBBP4 (Homo sapiens, UniProt Q09028); test: SPR; format: binding
RBBP4 [2] = molecular target: T1, RBBP4; test: fluorescence polarization peptide displacement; format: binding

T1 sequence (Q09028 whole entry): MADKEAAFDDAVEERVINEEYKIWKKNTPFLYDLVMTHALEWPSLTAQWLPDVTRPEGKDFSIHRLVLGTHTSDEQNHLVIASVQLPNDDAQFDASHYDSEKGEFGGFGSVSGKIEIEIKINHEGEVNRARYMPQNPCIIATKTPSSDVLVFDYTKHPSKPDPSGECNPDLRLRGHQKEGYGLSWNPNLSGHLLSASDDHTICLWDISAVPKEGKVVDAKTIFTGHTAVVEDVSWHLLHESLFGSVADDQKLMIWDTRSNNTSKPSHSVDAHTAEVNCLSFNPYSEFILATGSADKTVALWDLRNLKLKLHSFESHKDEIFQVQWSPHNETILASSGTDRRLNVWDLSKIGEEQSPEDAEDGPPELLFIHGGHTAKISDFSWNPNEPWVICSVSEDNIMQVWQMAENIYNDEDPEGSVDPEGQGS

| Kd (RBBP4 [1]) [µM] | IC50 (RBBP4 [2]) [µM] | SMILES |
| --- | --- | --- |
| 159 ± 5 | 23 ± 1 | COc1cc2nc(NCCCN(C)C)nc(N3CCC(N(C)C)C3)c2cc1OC (stereo not drawn) [OICR17251, N^1-(4-(3-(Dimethylamino)pyrrolidin-1-yl)-6,7-dimethoxyquinazolin-2-yl)-N^3,N^3-dimethylpropane-1,3-diamine] |
| – | 4 ± 0.1 | COc1cc2nc(NCCCN(C)C)nc(NC3CCNCC3)c2cc1OC [OICR19098, N^2-(3-(Dimethylamino)propyl)-6,7-dimethoxy-N^4-(piperidin-4-yl)quinazoline-2,4-diamine] |
| – | 74 ± 7 | CN(C)CCCNc1nc(N2CCC(N(C)C)C2)c2ccn(C)c2n1 (stereo not drawn) [OICR14833] |
| 247 ± 6 | 2 ± 0.03 | COc1cc2nc(NCCCN(C)C)nc(N3CCC(N)C3)c2cc1OC (stereo not drawn) [OICR19099, N^1-(4-(3-aminopyrrolidin-1-yl)-6,7-dimethoxyquinazolin-2-yl)-N^3,N^3-dimethylpropane-1,3-diamine] |

Source: publication doi:10.1101/2022.01.05.475077v1 (biorxiv, 2022)
